Source: patent US6642392B1 (priority 1997, dated 2003)
Read-outs that look alike come from different tables or passages of the source.

Key:
Format in all cases: in vivo
Puccinia recondita = assay: Test B: wheat leaf rust, preventive spray on wheat seedlings; settings: wheat leaf rust
Procedure, shortened: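 Wheat seedlings were sprayed to run-off with compound (3% acetone, 250 ppm Trem 014), then inoculated with P. recondita spores the next day. They were held 24 h saturated at 20 °C, then 6 days at 20 °C. Ratings are 0–100% disease control versus controls.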

[1] = tested on: Eiysiphe graminis f. sp. tritici; assay: Test A: wheat powdery mildew, preventive spray on wheat seedlings; settings: wheat powdery mildew
Procedure, shortened: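 Compounds (3% acetone, 250 ppm Trem 014) sprayed to run-off on wheat seedlings, inoculated next day with spore dust. Incubated 7 days at 20° C before disease rating, 0–100% control relative to untreated controls.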

Botrytis cinerea = assay: Test E: gray mold, preventive spray on cucumber seedlings; settings: gray mold on cucumber
Procedure, shortened: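 Compounds in 3% acetone were suspended with 250 ppm Trem 014 surfactant and sprayed to run-off on cucumber seedlings. B. cinerea spores were inoculated next day, then 48 h saturated humidity at 20° C and 5 days at 20° C. Disease control rated 0–100% versus controls.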

Phytophthora infestans = settings: tomato late blight
Pyricularia oryzae = settings: rice blast
[2] = 100 = 100% disease control, 0 = no control, unmarked entries (standard test concentration)
[3] = 100 = 100% disease control, 0 = no control relative to controls, unmarked entries (standard test concentration)

CC(COc1ccc(F)cc1C#N)NC(=O)C(C#N)C(C)(C)C (mixture of isomers) [compound 40]
Test B disease control rating (Puccinia recondita; [2]): 0%
Test A disease control rating [1, 3]: 21%
Test E disease control rating (Botrytis cinerea; [2]): 0%
Test D disease control rating (Phytophthora infestans; [2]): 0%
Test C disease control rating (Pyricularia oryzae; [2]): 86%

CC(COc1cc(F)ccc1C#N)NC(=O)C(C#N)C(C)(C)C (mixture of isomers) [compound 41]
Test B disease control rating (Puccinia recondita; [2]): 0%
Test A disease control rating [1, 3]: 62%
Test E disease control rating (Botrytis cinerea; [2]): 47%
Test D disease control rating (Phytophthora infestans; [2]): 66%
Test C disease control rating (Pyricularia oryzae; [2]): 97%

CC(COc1cccc(Cl)c1C#N)NC(=O)C(C#N)C(C)(C)C (mixture of isomers) [compound 42]
Test B disease control rating (Puccinia recondita; [2]): 0%
Test A disease control rating [1, 3]: 0%
Test E disease control rating (Botrytis cinerea; [2]): 0%
Test D disease control rating (Phytophthora infestans; [2]): 2%
Test C disease control rating (Pyricularia oryzae; [2]): 53%

CC(COc1cc(Cl)ccc1C#N)NC(=O)C(C#N)C(C)(C)C (mixture of isomers) [compound 43]
Test B disease control rating (Puccinia recondita; [2]): 0%
Test A disease control rating [1, 3]: 0%
Test E disease control rating (Botrytis cinerea; [2]): 0%
Test D disease control rating (Phytophthora infestans; [2]): 66%
Test C disease control rating (Pyricularia oryzae; [2]): 86%

CC(COc1cc(Br)ccc1C#N)NC(=O)C(C#N)C(C)(C)C (mixture of isomers) [compound 44]
Test B disease control rating (Puccinia recondita; [2]): 0%
Test A disease control rating [1, 3]: 0%
Test E disease control rating (Botrytis cinerea; [2]): 0%
Test D disease control rating (Phytophthora infestans; [2]): 89%
Test C disease control rating (Pyricularia oryzae; [2]): 94%

CC(COc1cccc(I)c1C#N)NC(=O)C(C#N)C(C)(C)C (mixture of isomers) [compound 45]
Test B disease control rating (Puccinia recondita; [2]): 0%
Test A disease control rating [1, 3]: 0%
Test E disease control rating (Botrytis cinerea; [2]): 0%
Test D disease control rating (Phytophthora infestans; [2]): 0%
Test C disease control rating (Pyricularia oryzae; [2]): 86%

CC(COc1cc(I)ccc1C#N)NC(=O)C(C#N)C(C)(C)C (mixture of isomers) [compound 46]
Test B disease control rating (Puccinia recondita; [2]): 0%
Test A disease control rating [1, 3]: 0%
Test E disease control rating (Botrytis cinerea; [2]): 0%
Test D disease control rating (Phytophthora infestans; [2]): 66%
Test C disease control rating (Pyricularia oryzae; [2]): 53%

CC(COc1cccc(C(F)(F)F)c1C#N)NC(=O)C(C#N)C(C)(C)C (mixture of isomers) [compound 47]
Test B disease control rating (Puccinia recondita; [2]): 0%
Test A disease control rating [1, 3]: 0%
Test E disease control rating (Botrytis cinerea; [2]): 0%
Test D disease control rating (Phytophthora infestans; [2]): 52%
Test C disease control rating (Pyricularia oryzae; [2]): 53%

CC(COc1c(C#N)cccc1C(F)(F)F)NC(=O)C(C#N)C(C)(C)C (mixture of isomers) [compound 48]
Test B disease control rating (Puccinia recondita; [2]): 0%
Test A disease control rating [1, 3]: 0%
Test E disease control rating (Botrytis cinerea; [2]): 0%
Test D disease control rating (Phytophthora infestans; [2]): 0%
Test C disease control rating (Pyricularia oryzae; [2]): 91%

Cc1c(Cl)cc(C#N)n1OCC(C)NC(=O)C(C#N)C(C)(C)C (mixture of isomers) [compound 49]
Test B disease control rating (Puccinia recondita; [2]): 0%
Test A disease control rating [1, 3]: 0%
Test E disease control rating (Botrytis cinerea; [2]): 0%
Test D disease control rating (Phytophthora infestans; [2]): 0%
Test C disease control rating (Pyricularia oryzae; [2]): 0%

Cc1c(Br)cc(C#N)n1OCC(C)NC(=O)C(C#N)C(C)(C)C (mixture of isomers) [compound 50]
Test B disease control rating (Puccinia recondita; [2]): 28%
Test A disease control rating [1, 3]: 86%
Test E disease control rating (Botrytis cinerea; [2]): 0%
Test D disease control rating (Phytophthora infestans; [2]): 57%
Test C disease control rating (Pyricularia oryzae; [2]): 53%

CC(COn1c(C#N)cc(Cl)c1Cl)NC(=O)C(C#N)C(C)(C)C (mixture of isomers) [compound 51]
Test B disease control rating (Puccinia recondita; [2]): 0%
Test A disease control rating [1, 3]: 71%
Test E disease control rating (Botrytis cinerea; [2]): 0%
Test D disease control rating (Phytophthora infestans; [2]): 68%
Test C disease control rating (Pyricularia oryzae; [2]): 53%

CC(COn1c(Cl)c(Cl)c(Cl)c1C#N)NC(=O)C(C#N)C(C)(C)C (mixture of isomers) [compound 52]
Test B disease control rating (Puccinia recondita; [2]): 86%
Test A disease control rating [1, 3]: 71%
Test E disease control rating (Botrytis cinerea; [2]): 0%
Test D disease control rating (Phytophthora infestans; [2]): 81%
Test C disease control rating (Pyricularia oryzae; [2]): 0%

CC(CCn1cc(Cl)cc1C#N)NC(=O)C(C#N)C(C)(C)C (mixture of isomers) [compound 53]
Test B disease control rating (Puccinia recondita; [2]): 0%
Test A disease control rating [1, 3]: 0%
Test E disease control rating (Botrytis cinerea; [2]): 0%
Test D disease control rating (Phytophthora infestans; [2]): 0%
Test C disease control rating (Pyricularia oryzae; [2]): 53%

CC(COc1ccccc1)NC(=O)C(C#N)C(C)C(C)(C)C (mixture of isomers) [compound 56]
Test B disease control rating (Puccinia recondita; tested at 40 ppm): 0%
Test A disease control rating ([1]; tested at 40 ppm): 74%
Test E disease control rating (Botrytis cinerea; tested at 40 ppm): 0%
Test D disease control rating (Phytophthora infestans; tested at 40 ppm): 0%
Test C disease control rating (Pyricularia oryzae; tested at 40 ppm): 85%

CC(COc1ccccc1F)NC(=O)C(C#N)C(C)C(C)(C)C (mixture of isomers) [compound 57]
Test B disease control rating (Puccinia recondita; tested at 40 ppm): 0%
Test A disease control rating ([1]; tested at 40 ppm): 91%
Test E disease control rating (Botrytis cinerea; tested at 40 ppm): 0%
Test D disease control rating (Phytophthora infestans; tested at 40 ppm): 0%
Test C disease control rating (Pyricularia oryzae; tested at 40 ppm): 85%

CC(COc1ccccc1Cl)NC(=O)C(C#N)C(C)C(C)(C)C (mixture of isomers) [compound 58]
Test B disease control rating (Puccinia recondita; tested at 40 ppm): 0%
Test A disease control rating ([1]; tested at 40 ppm): 57%
Test E disease control rating (Botrytis cinerea; tested at 40 ppm): 0%
Test D disease control rating (Phytophthora infestans; tested at 40 ppm): 0%
Test C disease control rating (Pyricularia oryzae; tested at 40 ppm): 52%

CC(COc1ccccc1Br)NC(=O)C(C#N)C(C)C(C)(C)C (mixture of isomers) [compound 59]
Test B disease control rating (Puccinia recondita; tested at 40 ppm): 0%
Test A disease control rating ([1]; tested at 40 ppm): 0%
Test E disease control rating (Botrytis cinerea; tested at 40 ppm): 0%
Test D disease control rating (Phytophthora infestans; tested at 40 ppm): 0%
Test C disease control rating (Pyricularia oryzae; tested at 40 ppm): 52%

CC(COc1ccccc1C#N)NC(=O)C(C#N)C(C)C(C)(C)C (mixture of isomers) [compound 60]
Test B disease control rating (Puccinia recondita; tested at 40 ppm): 0%
Test A disease control rating ([1]; tested at 40 ppm): 91%
Test E disease control rating (Botrytis cinerea; tested at 40 ppm): 0%
Test D disease control rating (Phytophthora infestans; tested at 40 ppm): 0%
Test C disease control rating (Pyricularia oryzae; tested at 40 ppm): 0%

CC(COc1ccccc1CC#N)NC(=O)C(C#N)C(C)C(C)(C)C (mixture of isomers) [compound 61]
Test B disease control rating (Puccinia recondita; tested at 40 ppm): 0%
Test A disease control rating ([1]; tested at 40 ppm): 74%
Test E disease control rating (Botrytis cinerea; tested at 40 ppm): 0%
Test D disease control rating (Phytophthora infestans; tested at 40 ppm): 0%
Test C disease control rating (Pyricularia oryzae; tested at 40 ppm): 73%

CC(COc1cc(Cl)ccc1Cl)NC(=O)C(C#N)C(C)C(C)(C)C (mixture of isomers) [compound 62]
Test B disease control rating (Puccinia recondita; tested at 40 ppm): 0%
Test A disease control rating ([1]; tested at 40 ppm): 74%
Test E disease control rating (Botrytis cinerea; tested at 40 ppm): 0%
Test D disease control rating (Phytophthora infestans; tested at 40 ppm): 0%
Test C disease control rating (Pyricularia oryzae; tested at 40 ppm): 52%

CC(COc1cccc(F)c1C#N)NC(=O)C(C#N)C(C)C(C)(C)C (mixture of isomers) [compound 63]
Test B disease control rating (Puccinia recondita; [2]): 0%
Test A disease control rating [1, 3]: 0%
Test E disease control rating (Botrytis cinerea; [2]): 0%
Test D disease control rating (Phytophthora infestans; [2]): 2%
Test C disease control rating (Pyricularia oryzae; [2]): 0%

CC(COc1cccc(Cl)c1C#N)NC(=O)C(C#N)C(C)C(C)(C)C (mixture of isomers) [compound 64]
Test B disease control rating (Puccinia recondita; [2]): 0%
Test A disease control rating [1, 3]: 0%
Test E disease control rating (Botrytis cinerea; [2]): 0%
Test D disease control rating (Phytophthora infestans; [2]): 2%
Test C disease control rating (Pyricularia oryzae; [2]): 53%

CC(COc1cccc(I)c1C#N)NC(=O)C(C#N)C(C)C(C)(C)C (mixture of isomers) [compound 65]
Test B disease control rating (Puccinia recondita; [2]): 0%
Test A disease control rating [1, 3]: 0%
Test E disease control rating (Botrytis cinerea; [2]): 0%
Test D disease control rating (Phytophthora infestans; [2]): 2%
Test C disease control rating (Pyricularia oryzae; [2]): 0%

CC(COc1cccc(C(F)(F)F)c1C#N)NC(=O)C(C#N)C(C)C(C)(C)C (mixture of isomers) [compound 66]
Test B disease control rating (Puccinia recondita; [2]): 0%
Test A disease control rating [1, 3]: 0%
Test E disease control rating (Botrytis cinerea; [2]): 0%
Test D disease control rating (Phytophthora infestans; [2]): 69%
Test C disease control rating (Pyricularia oryzae; [2]): 0%

CC(COc1c(F)cccc1C#N)NC(=O)C(C#N)C(C)C(C)(C)C (mixture of isomers) [compound 67]
Test B disease control rating (Puccinia recondita; [2]): 0%
Test A disease control rating [1, 3]: 0%
Test E disease control rating (Botrytis cinerea; [2]): 0%
Test D disease control rating (Phytophthora infestans; [2]): 92%
Test C disease control rating (Pyricularia oryzae; [2]): 0%

CC(COc1c(C#N)cccc1C(F)(F)F)NC(=O)C(C#N)C(C)C(C)(C)C (mixture of isomers) [compound 68]
Test B disease control rating (Puccinia recondita; [2]): 27%
Test A disease control rating [1, 3]: 62%
Test E disease control rating (Botrytis cinerea; [2]): 0%
Test D disease control rating (Phytophthora infestans; [2]): 82%
Test C disease control rating (Pyricularia oryzae; [2]): 86%

CC(COc1cc(F)cc(F)c1C#N)NC(=O)C(C#N)C(C)C(C)(C)C (mixture of isomers) [compound 69]
Test B disease control rating (Puccinia recondita; [2]): 0%
Test A disease control rating [1, 3]: 0%
Test E disease control rating (Botrytis cinerea; [2]): 0%
Test D disease control rating (Phytophthora infestans; [2]): 2%
Test C disease control rating (Pyricularia oryzae; [2]): 53%

Cc1c(Br)cc(C#N)n1OCC(C)NC(=O)C(C#N)C(C)C(C)(C)C (mixture of isomers) [compound 70]
Test B disease control rating (Puccinia recondita; [2]): 0%
Test A disease control rating [1, 3]: 63%
Test E disease control rating (Botrytis cinerea; [2]): 0%
Test D disease control rating (Phytophthora infestans; [2]): 13%
Test C disease control rating (Pyricularia oryzae; [2]): 0%

Cc1c(Cl)cc(C#N)n1CCC(C)NC(=O)C(C#N)C(C)C(C)(C)C (mixture of isomers) [compound 72]
Test B disease control rating (Puccinia recondita; [2]): 0%
Test A disease control rating [1, 3]: 0%
Test E disease control rating (Botrytis cinerea; [2]): 0%
Test D disease control rating (Phytophthora infestans; [2]): 0%
Test C disease control rating (Pyricularia oryzae; [2]): 91%
